# According to patent publication US20210109080A1, “Cell-Based Biosensor for Early Alzheimer's Disease Detection” (University of South Carolina, priority 2019, published 2021):
# Where a SMILES comes first, the peptide text is derived from it. The star is where a group is joined. Cbz = O=C(OCc1ccccc1)*
# Test system: HBMVEC monolayers
# Experiment: FITC-BSA transendothelial transfer / permeability coefficient (Pe) across HBMVEC monolayers
# Type: cell-based, human
# Settings: 3 μM MG-132 pre-treatment 30 min, then 5 μM MIX 24 h
# Method: HBMVEC monolayers were incubated alone (white circles), with 0.3-10 μM Aß aggregates (grey circles), or with TNF-α (positive control, black circles). (a) Following 24-h treatment, transfer of FITC-BSA from the apical to basolateral chamber was monitored via florescence. Error bars represent SEM, n=3. Increased permeability is evidenced by a faster transfer rate, or steeper slope. Following treatment with 5 μM Aß aggregates, the transfer rate is increased by approximately 10%. (b) TEER was monitored following addition of treatments (indicated by arrow). […] In the absence of Aß aggregates, TEER maintains a plateau, decreasing by less than 8% over 7 days.
# HBMVEC monolayers were incubated alone (CONT, white circles), with Aß monomer (MON, diamonds), with Aß aggregate mixture containing small aggregates (MIX, circles), or with Aß fibrils (FIB, triangles). (a) Using FITC-BSA transfer rates, Pe was determined after 24-h treatment with Aß concentrations of 5 μM (white bars) and 10 μM (black bars). […] (b) TEER was monitored following addition of treatments at a concentration of 5 μM (indicated by arrow).
# Pe is determined from the transfer rate of FITC-BSA and reported relative to untreated monolayers. […]
# (a) Confluent HBMVEC monolayers were incubated for 30 min with 100 pM, 1 nM, 10 nM, or 1 μM isolated small soluble Aß aggregates (SOL) (RH=43-54 nm). […] Using FITC-BSA transfer rates, Pe was determined.
compound,measurement,value
CC(C)C[C@@H](C=O)NC(=O)[C@H](CC(C)C)NC(=O)[C@H](CC(C)C)NC(=O)OCc1ccccc1 [MG-132] (Cbz-Leu-Leu-Leu-aldehyde),effect on Aß-induced increase in Pe,Abrogation of the Aß-induced increase in Pe
